These are literature values, as cited in paper PMC5774433 (MedChemComm, 2017).

This data set relates to menin.

With `CC1(C)CN=C(N2CCN(c3ncnc4sc(CC(F)(F)F)cc34)CC2)S1` [MI-2-2], the “increase in the binding affinity compared to its non-fluorinated counterpart” value was “over 20 fold”.
